The experiment deals with IL-2 production. Nature of the experiment: Inhibition of IL-2 production in PHA-activated Jurkat cells (ELISA). The experiment is classed as cell-based. As to conditions: Homo sapiens, PHA 2.5 μg/mL, 20 hours, IL-2 ELISA. As to the method:
Jurkat cells were placed in a 96 well plate (0.5 million cells per well in 1% FBS medium) then a test compound of this invention was added at different concentrations. After 10 minutes, the cells were activated with PHA (final concentration 2.5 μg/mL) and incubated for 20 hours at 37° C. under CO2. The final volume was 200 μL. Following incubation, the cells were centrifuged and the supernatants were collected and stored at −70° C. prior to assaying for IL-2 production. A commercial ELISA kit (IL-2 Eli-pair, Diaclone Research, Besancon, France) was used to detect production of IL-2, from which dose response curves were obtained. The IC50 value was calculated as the concentration at which 50% of maximum IL-2 production after stimulation was inhibited versus a non-stimulation control.
Broadly, the IC50 is the concentration that gives 50% inhibition. Higher therefore signals weaker potency. `COc1ccc2c(c1)nc(C(F)(F)F)n2-c1cnc(NC(=O)c2ccccc2F)cn1` [Compound 5, 2-Fluoro-N-[5-(5-methoxy-2-trifluoromethyl-benzoimidazol-1-yl)-pyrazin-2-yl]-benzamide] gave a 50% inhibitory concentration (IC50) of 20 nM.

Regarding `COc1ccc2c(c1)nc(C(F)(F)F)n2-c1cnc(NCc2ccccc2C)cn1` [Compound 46, [5-(5-Methoxy-2-trifluoromethyl-benzoimidazol-1-yl)-pyrazin-2-yl]-(2-methyl-benzyl)-amine], the IC50 was more than 1000 nM.

With `COc1ccc2c(c1)nc(C(F)(F)F)n2-c1cnc(NC(=O)c2cc(C)cc(C)c2)cn1` [Compound 121, N-[5-(5-Methoxy-2-trifluoromethyl-benzoimidazol-1-yl)-pyrazin-2-yl]-3,5-dimethyl-benzamide], the IC50 is more than 1000 nM.

Molecule `COc1ccc2c(c1)nc(C(F)(F)F)n2-c1cnc(NC(=O)c2ccc(C(F)(F)F)cc2)cn1` [Compound 137, N-[5-(5-Methoxy-2-trifluoromethyl-benzoimidazol-1-yl)-pyrazin-2-yl]-4-trifluoromethyl-benzamide] registered an IC50 of 714 nM.

`O=C(Nc1cnc(-n2c(C(F)(F)F)nc3cc(-c4ncco4)ccc32)cn1)c1c(F)cccc1F` [Compound 153, 2,6-Difluoro-N-[5-(5-oxazol-2-yl-2-trifluoromethyl-benzoimidazol-1-yl)-pyrazin-2-yl]-benzamide]: it took 15 nM to reach half-maximal inhibition (IC50).

For the molecule `COc1ccc2c(c1)nc(C(F)(F)F)n2-c1cnc(NC(=O)c2cc(Cl)ccc2F)cn1` [Compound 148, 5-Chloro-2-fluoro-N-[5-(5-methoxy-2-trifluoromethyl-benzoimidazol-1-yl)-pyrazin-2-yl]-benzamide], the IC50 is 98 nM.

With `COc1ccc2c(c1)nc(C(F)(F)F)n2-c1cnc(NC(=O)c2ccc(Cl)cc2)cn1` [Compound 91, 4-Chloro-N-[5-(5-methoxy-2-trifluoromethyl-benzoimidazol-1-yl)-pyrazin-2-yl]-benzamide], the IC50 was found to be 384 nM.

Molecule `COc1ccc2c(c1)nc(C(F)(F)F)n2-c1cnc(NC(=O)c2cc(OC)c(OC)cc2OC)cn1` [Compound 136, 2,4,5-Trimethoxy-N-[5-(5-methoxy-2-trifluoromethyl-benzoimidazol-1-yl)-pyrazin-2-yl]-benzamide] gave an IC50 of more than 1000 nM.

Turning to `COc1ccc2c(c1)nc(C(F)(F)F)n2-c1cnc(NC(=O)c2ccc(C#N)cc2)cn1` [Compound 93, 4-Cyano-N-[5-(5-methoxy-2-trifluoromethyl-benzoimidazol-1-yl)-pyrazin-2-yl]-benzamide], half-maximal inhibition (IC50) required 181 nM.

Take `COc1ccc2c(c1)nc(C(F)(F)F)n2-c1cnc(NCc2ccccc2)cn1` [Compound 115, Benzyl-[5-(5-methoxy-2-trifluoromethyl-benzoimidazol-1-yl)-pyrazin-2-yl]-amine]: the IC50 is more than 1000 nM.

In the case of `CCCCCc1ccc(C(=O)Nc2cnc(-n3c(C(F)(F)F)nc4cc(OC)ccc43)cn2)cc1` [Compound 131, N-[5-(5-Methoxy-2-trifluoromethyl-benzoimidazol-1-yl)-pyrazin-2-yl]-4-pentyl-benzamide], 331 nM corresponded to half-maximal inhibition (IC50).

In turn, `CCCc1ccc(C(=O)Nc2cnc(-n3c(C(F)(F)F)nc4cc(OC)ccc43)cn2)cc1` [Compound 109, N-[5-(5-Methoxy-2-trifluoromethyl-benzoimidazol-1-yl)-pyrazin-2-yl]-4-propyl-benzamide] had an IC50 of 279 nM.

`COc1ccc(C(=O)Nc2cnc(-n3c(C(F)(F)F)nc4cc(OC)ccc43)cn2)cc1` [Compound 120, 4-Methoxy-N-[5-(5-methoxy-2-trifluoromethyl-benzoimidazol-1-yl)-pyrazin-2-yl]-benzamide] returned an IC50 of 295 nM.

With `COc1cccc(CNc2cnc(-n3c(C(F)(F)F)nc4cc(OC)ccc43)cn2)c1` [Compound 103, (3-Methoxy-benzyl)-[5-(5-methoxy-2-trifluoromethyl-benzoimidazol-1-yl)-pyrazin-2-yl]-amine], the IC50 is more than 1000 nM.

`COc1ccc2c(c1)nc(C(F)(F)F)n2-c1cnc(NC(=O)c2ccc(F)cc2F)cn1` [Compound 7, 2,4-Difluoro-N-[5-(5-methoxy-2-trifluoromethyl-benzoimidazol-1-yl)-pyrazin-2-yl]-benzamide] displayed an IC50 of 33 nM.

In turn, `CCOC(=O)c1cccc(C(=O)Nc2cnc(-n3c(C(F)(F)F)nc4cc(OC)ccc43)cn2)c1` [Compound 114, N-[5-(5-Methoxy-2-trifluoromethyl-benzoimidazol-1-yl)-pyrazin-2-yl]-isophthalamic acid ethyl ester] came in with an IC50 of 88 nM.

Take `COc1ccc2c(c1)nc(C(F)(F)F)n2-c1cnc(NCc2ccc(F)cc2)cn1` [Compound 89, (4-Fluoro-benzyl)-[5-(5-methoxy-2-trifluoromethyl-benzoimidazol-1-yl)-pyrazin-2-yl]-amine]: the IC50 is more than 1000 nM.

Take `COc1ccc2c(c1)nc(C(F)(F)F)n2-c1cnc(NC(=O)c2ccncc2F)cn1` [Compound 3, 3-Fluoro-N-[5-(5-methoxy-2-trifluoromethyl-benzoimidazol-1-yl)-pyrazin-2-yl]-isonicotinamide]: the IC50 was found to be 79 nM.

`COc1ccc2c(c1)nc(C(F)(F)F)n2-c1cnc(NC(=O)c2cc(Cl)ccc2OC)cn1` [Compound 152, 5-Chloro-2-methoxy-N-[5-(5-methoxy-2-trifluoromethyl-benzoimidazol-1-yl)-pyrazin-2-yl]-benzamide]: the IC50 was more than 1000 nM.

As to `COc1ccc2c(c1)nc(C(F)(F)F)n2-c1cnc(NCc2ccccc2F)cn1` [Compound 41, (2-Fluoro-benzyl)-[5-(5-methoxy-2-trifluoromethyl-benzoimidazol-1-yl)-pyrazin-2-yl]-amine], half-maximal inhibition (IC50) was put at 396 nM.

The molecule `COc1ccc2c(c1)nc(C(F)(F)F)n2-c1cnc(NC(=O)c2ccccc2Br)cn1` [Compound 85, 2-Bromo-N-[5-(5-methoxy-2-trifluoromethyl-benzoimidazol-1-yl)-pyrazin-2-yl]-benzamide] came in with an IC50 of 37 nM.

For the molecule `COc1ccc2c(c1)nc(C(F)(F)F)n2-c1cnc(NC(=O)c2ccccc2C(F)(F)F)cn1` [Compound 145, N-[5-(5-Methoxy-2-trifluoromethyl-benzoimidazol-1-yl)-pyrazin-2-yl]-2-trifluoromethyl-benzamide], the midpoint of inhibition, the IC50, lay at 99 nM.

On to `COc1ccc2c(c1)nc(C(F)(F)F)n2-c1cnc(NC(=O)c2cc(C)ccc2C)cn1` [Compound 122, N-[5-(5-Methoxy-2-trifluoromethyl-benzoimidazol-1-yl)-pyrazin-2-yl]-2,5-dimethyl-benzamide], for which the IC50 was found to be 73 nM.

`COc1ccc2c(c1)nc(C(F)(F)F)n2-c1cnc(NC(=O)c2cccc(I)c2)cn1` [Compound 112, 3-Iodo-N-[5-(5-methoxy-2-trifluoromethyl-benzoimidazol-1-yl)-pyrazin-2-yl]-benzamide] displayed an IC50 of 173 nM.

`COc1ccc2c(c1)nc(C(F)(F)F)n2-c1cnc(NC(=O)c2ccc(Br)cc2)cn1` [Compound 107, 4-Bromo-N-[5-(5-methoxy-2-trifluoromethyl-benzoimidazol-1-yl)-pyrazin-2-yl]-benzamide] came in with an IC50 of 18 nM.

In turn, `COc1ccc2c(c1)nc(C(F)(F)F)n2-c1cnc(NCc2ccccc2OC)cn1` [Compound 102, (2-Methoxy-benzyl)-[5-(5-methoxy-2-trifluoromethyl-benzoimidazol-1-yl)-pyrazin-2-yl]-amine] registered an IC50 of more than 1000 nM.

In turn, `COc1ccc2c(c1)nc(C(F)(F)F)n2-c1cnc(NC(=O)c2ccc(C(C)C)cc2)cn1` [Compound 141, 4-Isopropyl-N-[5-(5-methoxy-2-trifluoromethyl-benzoimidazol-1-yl)-pyrazin-2-yl]-benzamide] gave an IC50 of more than 1000 nM.

Molecule `CCc1ccc(C(=O)Nc2cnc(-n3c(C(F)(F)F)nc4cc(OC)ccc43)cn2)cc1` [Compound 106, 4-Ethyl-N-[5-(5-methoxy-2-trifluoromethyl-benzoimidazol-1-yl)-pyrazin-2-yl]-benzamide] registered an IC50 of 2 nM.

`CCOc1ccccc1C(=O)Nc1cnc(-n2c(C(F)(F)F)nc3cc(OC)ccc32)cn1` [Compound 123, 2-Ethoxy-N-[5-(5-methoxy-2-trifluoromethyl-benzoimidazol-1-yl)-pyrazin-2-yl]-benzamide]: the IC50 was more than 1000 nM.

Regarding `COc1ccc2c(c1)nc(C(F)(F)F)n2-c1cnc(NC(=O)c2ccc(Cl)cc2F)cn1` [Compound 9, 4-Chloro-2-fluoro-N-[5-(5-methoxy-2-trifluoromethyl-benzoimidazol-1-yl)-pyrazin-2-yl]-benzamide], 55 nM corresponded to half-maximal inhibition (IC50).

Molecule `COc1cccc(C(=O)Nc2cnc(-n3c(C(F)(F)F)nc4cc(OC)ccc43)cn2)c1` [Compound 104, 3-Methoxy-N-[5-(5-methoxy-2-trifluoromethyl-benzoimidazol-1-yl)-pyrazin-2-yl]-benzamide] returned an IC50 of 929 nM.

For the molecule `COc1ccc(C(=O)Nc2cnc(-n3c(C(F)(F)F)nc4cc(OC)ccc43)cn2)c(OC)c1` [Compound 124, 2,4-Dimethoxy-N-[5-(5-methoxy-2-trifluoromethyl-benzoimidazol-1-yl)-pyrazin-2-yl]-benzamide], the IC50 was more than 1000 nM.

`CCCCc1ccc(C(=O)Nc2cnc(-n3c(C(F)(F)F)nc4cc(OC)ccc43)cn2)cc1` [Compound 117, 4-Butyl-N-[5-(5-methoxy-2-trifluoromethyl-benzoimidazol-1-yl)-pyrazin-2-yl]-benzamide] returned an IC50 of 81 nM.

For the molecule `COc1ccc2c(c1)nc(C(F)(F)F)n2-c1cnc(NC(=O)c2cccc(Cl)c2Cl)cn1` [Compound 113, 2,3-Dichloro-N-[5-(5-methoxy-2-trifluoromethyl-benzoimidazol-1-yl)-pyrazin-2-yl]-benzamide], half-maximal inhibition (IC50) required 22 nM.

Source of the values: US8119643B2, “Benzoimidazolyl-pyrazine compounds for inflammation and immune-related uses” (Synta Pharmaceuticals Corp., priority 2006, dated 2012).
